The source made the active and inactive calls. The rule behind the calls is not given here.

For one test, the system named is HL-60. The experiment in a line: Cytotoxicity against human HL60 cells up to 10 uM. It is filed as functional, cell-based.
For another test, the system named is Staphylococcus aureus. The experiment in a line: Antibacterial activity against Staphylococcus aureus up to 100 ug/ml. It is filed as functional, organism-based.
Test [1] concerns the target MAP kinase-activated protein kinase 2 (Homo sapiens) (UniProt P49137). The experiment in a line: Inhibition of His-tagged human MAPKAPK2 expressed in Escherichia coli at 10 uM after 1 hr by Z'-LYTE assay relative to control.
Test [2] addresses T1, Glycogen synthase kinase-3 alpha (Homo sapiens, UniProt P49840). The experiment in a line: Inhibition of N-Terminal GST tagged human GSK3A expressed in baculovirus expression system at 10 uM after 1 hr by Z'-LYTE assay relative to control.
Target sequence in this assay (P49840 2-483 limits assumed): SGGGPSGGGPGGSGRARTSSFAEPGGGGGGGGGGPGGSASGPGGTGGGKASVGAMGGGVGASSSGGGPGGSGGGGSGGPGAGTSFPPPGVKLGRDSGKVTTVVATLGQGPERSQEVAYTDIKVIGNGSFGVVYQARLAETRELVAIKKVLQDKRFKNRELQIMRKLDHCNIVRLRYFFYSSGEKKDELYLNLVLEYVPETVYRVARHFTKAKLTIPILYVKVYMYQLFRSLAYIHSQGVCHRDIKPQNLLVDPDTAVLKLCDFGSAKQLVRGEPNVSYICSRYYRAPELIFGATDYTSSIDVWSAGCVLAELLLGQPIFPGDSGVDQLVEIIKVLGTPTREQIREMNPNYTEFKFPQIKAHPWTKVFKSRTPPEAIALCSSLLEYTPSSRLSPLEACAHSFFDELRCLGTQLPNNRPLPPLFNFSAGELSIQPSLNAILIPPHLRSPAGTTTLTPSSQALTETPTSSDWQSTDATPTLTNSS
The target of test [3] is T2, Mitogen-activated protein kinase 14 (Homo sapiens, UniProt Q16539). The experiment in a line: Inhibition of human MAPK14 expressed in Escherichia coli after 1 hr by Z'-LYTE assay.
In test [4] the target is Glycogen synthase kinase-3 beta (Homo sapiens) (UniProt P49841). The experiment in a line: Inhibition of N-Terminal His tagged human GSK3B expressed in baculovirus expression system at 10 uM after 1 hr by Z'-LYTE assay relative to control.
For the next test, the system named is Saccharomyces cerevisiae. The experiment in a line: Antifungal activity against Saccharomyces cerevisiae. It is filed as functional, organism-based.
Test [5] concerns the target MAP kinase-activated protein kinase 3 (Homo sapiens) (UniProt Q16644). The experiment in a line: Inhibition of His-tagged human MAPKAPK3 expressed in baculovirus expression system at 10 uM after 1 hr by Z'-LYTE assay relative to control.
Test [6] addresses T3, Ribosomal protein S6 kinase alpha-3 (Homo sapiens, UniProt P51812). The experiment in a line: Inhibition of His-tagged recombinant human RSK2 expressed in baculovirus expression system at 10 uM after 1 hr by Z'-LYTE assay relative to control.
Test [7] deals with Maternal embryonic leucine zipper kinase (Homo sapiens) (UniProt Q14680). The experiment in a line: Inhibition of GST tagged human MELK expressed in baculovirus expression system at 10 uM after 1 hr by Z'-LYTE assay relative to control.
Test [8] concerns the target T1, Glycogen synthase kinase-3 alpha. The experiment in a line: Inhibition of N-Terminal GST tagged human GSK3A expressed in baculovirus expression system after 1 hr by Z'-LYTE assay.
Target sequence in this assay (P49840 whole entry): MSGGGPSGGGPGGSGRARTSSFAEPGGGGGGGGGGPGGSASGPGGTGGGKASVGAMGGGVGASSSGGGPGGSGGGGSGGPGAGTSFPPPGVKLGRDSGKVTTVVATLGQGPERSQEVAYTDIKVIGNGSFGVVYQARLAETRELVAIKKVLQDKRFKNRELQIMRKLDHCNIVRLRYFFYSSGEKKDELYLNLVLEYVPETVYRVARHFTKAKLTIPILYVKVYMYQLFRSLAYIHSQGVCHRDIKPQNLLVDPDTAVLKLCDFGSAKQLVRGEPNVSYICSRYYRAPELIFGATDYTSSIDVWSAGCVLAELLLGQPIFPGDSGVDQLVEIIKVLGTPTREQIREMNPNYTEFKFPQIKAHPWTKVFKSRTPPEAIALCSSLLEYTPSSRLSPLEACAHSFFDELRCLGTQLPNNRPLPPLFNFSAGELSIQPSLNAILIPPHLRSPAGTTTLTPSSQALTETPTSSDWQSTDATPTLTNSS
Test [9] concerns the target T3, Ribosomal protein S6 kinase alpha-3. The experiment in a line: Inhibition of His-tagged recombinant human RSK2 expressed in baculovirus expression system after 1 hr by Z'-LYTE assay.
Test [10] addresses T2, Mitogen-activated protein kinase 14. The experiment in a line: Inhibition of human MAPK14 expressed in Escherichia coli at 10 uM after 1 hr by Z'-LYTE assay relative to control.

T3 sequence (P51812 whole entry): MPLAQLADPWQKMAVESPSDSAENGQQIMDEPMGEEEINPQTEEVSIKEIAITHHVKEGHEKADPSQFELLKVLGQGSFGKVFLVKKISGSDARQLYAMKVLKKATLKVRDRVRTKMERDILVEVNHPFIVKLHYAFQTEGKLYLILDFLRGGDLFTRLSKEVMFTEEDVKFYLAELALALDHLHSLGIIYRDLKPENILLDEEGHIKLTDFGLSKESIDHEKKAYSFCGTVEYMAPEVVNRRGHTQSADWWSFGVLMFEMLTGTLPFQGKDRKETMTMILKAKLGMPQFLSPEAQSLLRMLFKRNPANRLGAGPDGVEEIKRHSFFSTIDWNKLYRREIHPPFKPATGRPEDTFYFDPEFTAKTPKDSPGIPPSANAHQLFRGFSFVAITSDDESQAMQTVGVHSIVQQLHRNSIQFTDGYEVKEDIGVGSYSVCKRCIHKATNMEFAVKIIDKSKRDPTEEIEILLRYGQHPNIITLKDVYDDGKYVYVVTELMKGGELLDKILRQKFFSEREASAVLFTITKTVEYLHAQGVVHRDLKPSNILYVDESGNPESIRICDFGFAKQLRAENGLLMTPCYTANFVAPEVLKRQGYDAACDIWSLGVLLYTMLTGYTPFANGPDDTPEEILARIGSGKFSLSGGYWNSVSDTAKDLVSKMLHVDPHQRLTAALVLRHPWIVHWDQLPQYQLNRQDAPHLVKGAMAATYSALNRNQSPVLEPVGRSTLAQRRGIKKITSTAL
Sequence of Glycogen synthase kinase-3 beta (Homo sapiens) (P49841 whole entry, looked up): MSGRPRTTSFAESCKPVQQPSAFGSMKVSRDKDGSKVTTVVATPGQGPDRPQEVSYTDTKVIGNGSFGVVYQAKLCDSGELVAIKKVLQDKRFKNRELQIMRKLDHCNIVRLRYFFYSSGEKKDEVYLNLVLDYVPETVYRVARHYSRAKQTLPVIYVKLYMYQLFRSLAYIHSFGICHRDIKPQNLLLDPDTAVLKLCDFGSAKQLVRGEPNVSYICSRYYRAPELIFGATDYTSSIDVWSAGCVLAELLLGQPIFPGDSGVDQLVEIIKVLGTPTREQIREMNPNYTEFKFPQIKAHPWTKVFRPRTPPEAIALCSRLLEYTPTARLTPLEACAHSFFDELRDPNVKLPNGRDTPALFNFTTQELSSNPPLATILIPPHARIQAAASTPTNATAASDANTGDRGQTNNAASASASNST
Sequence of MAP kinase-activated protein kinase 3 (Homo sapiens) (Q16644 whole entry, looked up): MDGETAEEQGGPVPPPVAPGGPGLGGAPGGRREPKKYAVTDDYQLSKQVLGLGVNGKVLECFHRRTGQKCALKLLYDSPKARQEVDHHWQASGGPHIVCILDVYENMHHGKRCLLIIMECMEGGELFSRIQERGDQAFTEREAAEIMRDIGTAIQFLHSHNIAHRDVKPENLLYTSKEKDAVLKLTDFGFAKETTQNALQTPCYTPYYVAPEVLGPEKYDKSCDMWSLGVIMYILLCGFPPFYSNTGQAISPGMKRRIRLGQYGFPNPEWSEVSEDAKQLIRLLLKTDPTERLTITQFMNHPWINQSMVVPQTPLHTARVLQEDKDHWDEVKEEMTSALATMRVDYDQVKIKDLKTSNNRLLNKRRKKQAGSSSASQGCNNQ
T2 sequence (Q16539 whole entry): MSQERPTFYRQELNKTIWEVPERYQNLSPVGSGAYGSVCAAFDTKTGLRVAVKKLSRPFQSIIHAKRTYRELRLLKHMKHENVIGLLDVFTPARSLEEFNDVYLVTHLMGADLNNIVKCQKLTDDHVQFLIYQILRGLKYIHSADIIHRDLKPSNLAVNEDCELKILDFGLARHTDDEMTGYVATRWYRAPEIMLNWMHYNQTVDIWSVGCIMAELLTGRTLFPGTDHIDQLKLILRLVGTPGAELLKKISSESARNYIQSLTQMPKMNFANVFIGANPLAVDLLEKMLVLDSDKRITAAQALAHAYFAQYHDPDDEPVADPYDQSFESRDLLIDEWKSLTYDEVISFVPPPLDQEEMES
Sequence of MAP kinase-activated protein kinase 2 (Homo sapiens) (P49137 whole entry, looked up): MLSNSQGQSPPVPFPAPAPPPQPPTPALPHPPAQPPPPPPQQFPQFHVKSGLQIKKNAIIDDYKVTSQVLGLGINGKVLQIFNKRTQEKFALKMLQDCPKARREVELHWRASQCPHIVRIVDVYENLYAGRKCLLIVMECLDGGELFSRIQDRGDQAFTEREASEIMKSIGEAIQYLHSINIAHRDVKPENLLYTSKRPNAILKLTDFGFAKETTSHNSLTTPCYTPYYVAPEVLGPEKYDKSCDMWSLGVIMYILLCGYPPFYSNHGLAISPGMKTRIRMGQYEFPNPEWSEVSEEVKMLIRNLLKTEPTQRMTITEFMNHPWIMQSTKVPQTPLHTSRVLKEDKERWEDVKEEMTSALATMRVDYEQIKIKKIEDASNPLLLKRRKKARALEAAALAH
Sequence of Maternal embryonic leucine zipper kinase (Homo sapiens) (Q14680 whole entry, looked up): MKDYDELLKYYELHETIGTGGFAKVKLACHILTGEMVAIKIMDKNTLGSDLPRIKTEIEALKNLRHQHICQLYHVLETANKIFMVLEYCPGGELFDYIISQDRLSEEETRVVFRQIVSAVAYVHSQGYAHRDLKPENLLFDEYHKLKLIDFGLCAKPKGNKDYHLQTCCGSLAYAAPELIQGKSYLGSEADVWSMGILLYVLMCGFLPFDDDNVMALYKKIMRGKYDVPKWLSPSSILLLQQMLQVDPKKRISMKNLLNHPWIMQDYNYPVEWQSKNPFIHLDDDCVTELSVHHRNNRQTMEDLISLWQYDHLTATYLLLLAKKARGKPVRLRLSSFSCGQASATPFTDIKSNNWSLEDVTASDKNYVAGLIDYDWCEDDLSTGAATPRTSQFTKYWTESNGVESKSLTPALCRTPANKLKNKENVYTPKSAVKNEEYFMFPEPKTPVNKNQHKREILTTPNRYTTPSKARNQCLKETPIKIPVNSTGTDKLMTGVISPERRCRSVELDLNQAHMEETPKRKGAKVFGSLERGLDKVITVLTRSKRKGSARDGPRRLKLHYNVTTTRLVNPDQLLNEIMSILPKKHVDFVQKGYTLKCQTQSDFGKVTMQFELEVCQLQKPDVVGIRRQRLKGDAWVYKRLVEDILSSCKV

Consider `O=C(OC[C@H]1O[C@@H](n2cnc3c(=O)[nH]cnc32)[C@H](O)[C@@H]1O)c1cc[nH]c1`, for which the outcome in the test on HL-60, with Staphylococcus aureus and with Saccharomyces cerevisiae was inactive. The inhibition amounted to 89% in test [1]; 100% in [2]; 99% in [4]; 100% in test [5]; 95% in test [6]; 97% in test [7]. The inhibition in [10] worked out at 95%. Further, the results for the IC50 in test [3], in test [8] and in test [9] were 870 nM, 610 nM and 640 nM, respectively.

For `O=C(OC[C@H]1O[C@@H](n2cnc3c(=O)[nH]cnc32)[C@H](O)[C@@H]1O)c1ccc[nH]1`, the result with HL-60, in the test on Staphylococcus aureus and in the test with Saccharomyces cerevisiae was inactive. The inhibition in [1] was found to be 42%; in test [2], 94%; in [4], 94%; in test [5], 83%; in [6], 102%; in test [7] it was 97%. Also, the inhibition in [10] turned out to be 95%. The IC50 turned out to be 1320 nM in test [3], 1110 nM in test [8] and 230 nM in test [9].

For `Nc1nc2c(ncn2[C@@H]2O[C@H](COC(=O)c3cc[nH]c3)[C@@H](O)[C@H]2O)c(=O)[nH]1`, the outcome in the test on HL-60, in the test with Staphylococcus aureus and in the test with Saccharomyces cerevisiae was inactive. Also, the inhibition in [1] is 82%; in [2], 93%; in test [4] it was 96%; in test [5] it was 99%; in [6], 93%; in [7] it was 87%. Moreover, the inhibition in test [10] stood at 84%. Besides, the IC50 in test [3] worked out at 990 nM; in test [8], 670 nM; in test [9], 680 nM.

With `Nc1ncnc2c1ncn2[C@@H]1O[C@H](COC(=O)c2ccc[nH]2)[C@@H](O)[C@H]1O`, the outcome in the test with HL-60, in the test on Staphylococcus aureus and in the test with Saccharomyces cerevisiae was inactive. In addition, the inhibition in test [1] was determined as 95%; in test [2], 99%; in test [4], 100%; in [5], 98%; in test [6] it was 96%; in test [7], 95%. Also, in test [10], the inhibition is 95%. For the same compound, the IC50 in [3] was found to be 1000 nM; in test [8], 890 nM; in test [9], 800 nM.

As for `Nc1nc2c(ncn2[C@@H]2O[C@H](COC(=O)c3ccc[nH]3)[C@@H](O)[C@H]2O)c(=O)[nH]1`, the result in the test on HL-60, in the test on Staphylococcus aureus and with Saccharomyces cerevisiae was inactive. For the same compound, the inhibition in test [1] came out at 88%; in test [2], 98%; in [4], 98%; in test [5] it was 101%; in test [6], 96%; in [7] it was 96%. In addition, the inhibition in test [10] came to 93%. In addition, the IC50 in test [3] worked out at 950 nM; in test [8], 710 nM; in test [9] it was 660 nM.

`Nc1ncnc2c1ncn2[C@@H]1O[C@H](COC(=O)c2cc[nH]c2)[C@@H](O)[C@H]1O`: the outcome in the test on HL-60, in the test with Staphylococcus aureus and in the test with Saccharomyces cerevisiae was inactive. Further, the inhibition was 87% in test [1]; 101% in [2]; 98% in test [4]; 98% in test [5]; 94% in test [6]; 98% in [7]. The inhibition in [10] was found to be 95%. Further, the results for the IC50 in [3], in [8] and in [9] were 1710 nM, 1000 nM and 970 nM, respectively.

These data come from ChEMBL document CHEMBL4602660, “Kinase-Inhibitory Nucleoside Derivatives from the Pacific Bryozoan Nelliella nelliiformis” (J Nat Prod, 2020).
